Source: paper PMC4362760, “JAK2^V617F Drives Mcl-1 Expression and Sensitizes Hematologic Cell Lines to Dual Inhibition of JAK2 and Bcl-xL” (PLoS ONE, 2015)
pKi: −log10 of the molar value. Values joined by “and” are separate entries in the source; they are usually repeats but may differ in a detail not shown here. Equal values may be shown once. Values belong to the compound of their own block, whether it stands above or below them.

How the values were obtained:
[1] = tested on: MV4;11 cells; test: alamarBlue cell viability, JAKi-I/ABT-263 combination, 72 hr, MV4;11; assay type: cell-based; conditions: MV4;11, 72h, Jaki-1 0 uM
Method: (§1) Transfection of siRNAs was performed using Lipofectamine RNAiMAX according to the manufacturer’s recommendations. […] Caspase-3 activity was determined using the Caspase-GLO 3/7 Assay (Promega) in parallel with the CellTiter-GLO viability assay (Promega). The data are expressed as Caspase-3/7 activity divided by cell viability.
(§2) Caspase-3 activity was determined at each time point. Data are from duplicate samples and are representative of at least three independent experiments. (D-G) Cells were treated in combination as indicated, and cell viability was determined after 72 hr. Data are means of duplicate determinations, and are representative of at least three independent experiments. […] Drugs were added simultaneously, and cell viability was determined after 72 hr. The data were then analyzed using the drug-drug interaction model of Bliss additivity^16 to define dose combinations that were synergistic (values >15; red), antagonistic (values <-15; blue), or without effect (-15<values<15; gray). (I) Model of JAK2/Bcl-2 family inhibitor synergy. JAK2^V617F constitutively phosphorylates and activates STAT3/5, thus enforcing expression of the transcriptional target, Mcl-1. Mcl-1 collaborates with Bcl-XL to oppose apoptosis and support viability.
(§3) Supplementary file pone.0114363.s006.xls: S6 Dataset Cells were treated in combination as indicated, and cell viability was determined using alamarBlue after 72 hr. Data are means of duplicate determinations, and are representative of at least three independent experiments. (XLS) Click here for additional data file.

[2] = tested on: HEL cells; test: Cell viability of HEL cells after siRNA transfection and 72 hr ABT-263; assay type: cell-based
Method: as §1, with “viability. […]” for “viability.”

[3] = tested on: K562 cells; test: alamarBlue cell viability, JAKi-I/ABT-263 combination, 72 hr, K562; assay type: cell-based; conditions: K562, 72h, Jaki-1 0 uM
Method: as §1, §2, §3

[4] = tested on: Bim binding to Bcl-XL; test: Bim immunoblot of lysates and Bcl-XL immunoprecipitates; assay type: cell-based
Method: For immunoprecipitation, lysates were prepared in CHAPS lysis buffer and 2 mg of cell lysate was mixed with at least 8 μg of immunoprecipitating antibody overnight at 4°C. The following day, 30 μl of a Protein A- or Protein G-agarose slurry was added for an additional 2 hr. Immunoprecipitates were washed three times in CHAPS lysis buffer, and heated in 1.5x loading buffer at 95°C for 5 min.
as §2

[5] = tested on: Caspase-3/7; test: Caspase-GLO 3/7 Assay, Caspase-3/7 activity divided by cell viability, fold of control; assay type: cell-based; conditions: for caspase-3 activity, single agent: JAKi-I or ABT-263 alone
[6] = molecular target: STK16 (Homo sapiens, UniProt O75716); test: TR-FRET Kinome STK16; assay type: binding; conditions: STK16 Invitrogen IVGN Tracer .05(Subs Conc)
Description: (§4) (XLS) Click here for additional data file.

[7] = molecular target: SGK1 (Homo sapiens, UniProt O00141); test: TR-FRET Kinome SGK1; assay type: binding; conditions: SGK1 Millipore .1(Subs Conc)
Description: as §4

[8] = molecular target: CAMKK2 (Homo sapiens, UniProt Q96RR4); test: TR-FRET Kinome CAMKK2; assay type: binding; conditions: CAMKK2 Invitrogen .03(Subs Conc)
Description: as §4

[9] = molecular target: T1, ACVR1 (Homo sapiens, UniProt Q04771); test: TR-FRET Kinome ACVR1; assay type: binding; conditions: ACVR1 Invitrogen .05(Subs Conc)
T1 construct: purchased Invitrogen
Description: as §4

[10] = molecular target: cdk2 (Homo sapiens, UniProt P24941); test: TR-FRET Kinome cdk2; assay type: binding; conditions: cdk2 Invitrogen .05(Subs Conc)
Description: as §4

[11] = molecular target: TAOK2 (Homo sapiens, UniProt Q9UL54); test: TR-FRET Kinome TAOK2; assay type: binding; conditions: TAOK2 Invitrogen .2(Subs Conc)
Description: as §4

[12] = molecular target: Pim2 (Homo sapiens, UniProt Q9P1W9); test: TR-FRET Kinome Pim2; assay type: binding; conditions: Pim2 Millipore .025(Subs Conc)
Description: as §4

[13] = molecular target: MAP2K3 (Homo sapiens, UniProt P46734); test: TR-FRET Kinome MAP2K3; assay type: binding; conditions: MAP2K3 Invitrogen .075(Subs Conc)
Description: as §4

[14] = molecular target: PKG1A (Homo sapiens, UniProt Q13976); test: TR-FRET Kinome PKG1A; assay type: binding; conditions: PKG1A Millipore .05(Subs Conc)
Description: as §4

[15] = molecular target: BRAF (Homo sapiens, UniProt P15056); test: TR-FRET Kinome BRAF; assay type: binding; conditions: BRAF Invitrogen .065(Subs Conc)
Description: as §4

[16] = molecular target: CDK11; test: TR-FRET Kinome CDK11; assay type: binding, human; conditions: CDK11 Abbott .025(Subs Conc)
Description: as §4

[17] = molecular target: EGFR (Homo sapiens, UniProt P00533); test: TR-FRET Kinome EGFR; assay type: binding; conditions: EGFR Invitrogen .05(Subs Conc)
Description: as §4

[18] = molecular target: MST1 (Homo sapiens, UniProt Q13043); test: TR-FRET Kinome MST1; assay type: binding; conditions: MST1 Invitrogen .05(Subs Conc)
Description: as §4

Chain of MST1 (Q13043 whole entry): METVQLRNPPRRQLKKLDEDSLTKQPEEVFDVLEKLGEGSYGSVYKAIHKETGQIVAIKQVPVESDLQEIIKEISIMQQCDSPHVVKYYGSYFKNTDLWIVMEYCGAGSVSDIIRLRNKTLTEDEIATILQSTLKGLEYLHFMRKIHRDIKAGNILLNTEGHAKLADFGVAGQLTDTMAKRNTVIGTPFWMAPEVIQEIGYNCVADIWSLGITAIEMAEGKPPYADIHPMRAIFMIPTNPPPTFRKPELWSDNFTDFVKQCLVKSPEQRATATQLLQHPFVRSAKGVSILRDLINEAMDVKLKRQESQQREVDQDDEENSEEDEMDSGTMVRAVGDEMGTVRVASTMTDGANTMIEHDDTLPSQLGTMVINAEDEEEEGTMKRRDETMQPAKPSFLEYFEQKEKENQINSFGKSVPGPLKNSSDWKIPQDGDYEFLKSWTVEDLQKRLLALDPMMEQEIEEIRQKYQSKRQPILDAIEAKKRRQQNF
Chain of STK16 (O75716 whole entry): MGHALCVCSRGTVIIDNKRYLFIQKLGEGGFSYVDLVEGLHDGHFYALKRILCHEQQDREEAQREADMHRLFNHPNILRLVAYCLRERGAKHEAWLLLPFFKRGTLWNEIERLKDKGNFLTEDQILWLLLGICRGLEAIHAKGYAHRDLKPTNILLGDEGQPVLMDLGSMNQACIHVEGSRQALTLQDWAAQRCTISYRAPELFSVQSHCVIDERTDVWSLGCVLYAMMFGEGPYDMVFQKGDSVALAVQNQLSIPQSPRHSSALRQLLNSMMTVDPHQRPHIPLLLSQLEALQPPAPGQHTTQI
Chain of TAOK2 (Q9UL54 whole entry): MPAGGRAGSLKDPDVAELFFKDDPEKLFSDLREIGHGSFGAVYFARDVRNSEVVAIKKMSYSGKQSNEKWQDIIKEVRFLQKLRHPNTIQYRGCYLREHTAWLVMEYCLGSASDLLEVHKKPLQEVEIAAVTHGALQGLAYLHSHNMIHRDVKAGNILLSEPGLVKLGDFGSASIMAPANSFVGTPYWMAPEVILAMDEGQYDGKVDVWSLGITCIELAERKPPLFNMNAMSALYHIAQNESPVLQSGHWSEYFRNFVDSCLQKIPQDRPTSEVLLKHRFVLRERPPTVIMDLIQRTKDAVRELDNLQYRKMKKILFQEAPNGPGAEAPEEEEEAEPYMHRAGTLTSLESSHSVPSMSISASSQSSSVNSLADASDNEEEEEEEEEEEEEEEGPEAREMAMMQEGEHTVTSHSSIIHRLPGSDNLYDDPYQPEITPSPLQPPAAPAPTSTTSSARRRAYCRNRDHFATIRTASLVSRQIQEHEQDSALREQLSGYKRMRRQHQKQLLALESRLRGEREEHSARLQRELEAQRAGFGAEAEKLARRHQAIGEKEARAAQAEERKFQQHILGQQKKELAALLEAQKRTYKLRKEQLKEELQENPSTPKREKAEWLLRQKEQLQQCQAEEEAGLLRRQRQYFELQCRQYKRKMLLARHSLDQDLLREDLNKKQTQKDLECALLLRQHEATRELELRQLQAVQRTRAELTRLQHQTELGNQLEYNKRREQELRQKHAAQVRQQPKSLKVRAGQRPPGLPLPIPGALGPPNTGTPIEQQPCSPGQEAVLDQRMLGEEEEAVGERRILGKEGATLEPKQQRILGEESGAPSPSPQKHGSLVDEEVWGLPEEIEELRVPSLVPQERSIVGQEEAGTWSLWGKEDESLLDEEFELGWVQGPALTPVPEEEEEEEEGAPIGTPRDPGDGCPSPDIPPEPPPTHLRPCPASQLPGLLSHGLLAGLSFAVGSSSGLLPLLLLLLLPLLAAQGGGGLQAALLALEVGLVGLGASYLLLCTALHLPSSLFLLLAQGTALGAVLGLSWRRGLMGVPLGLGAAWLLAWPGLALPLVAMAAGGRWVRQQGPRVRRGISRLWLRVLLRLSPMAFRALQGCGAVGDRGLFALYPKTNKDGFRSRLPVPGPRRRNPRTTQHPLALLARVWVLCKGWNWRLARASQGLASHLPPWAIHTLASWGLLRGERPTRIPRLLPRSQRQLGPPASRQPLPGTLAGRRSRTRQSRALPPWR
Chain of CAMKK2 (Q96RR4 whole entry): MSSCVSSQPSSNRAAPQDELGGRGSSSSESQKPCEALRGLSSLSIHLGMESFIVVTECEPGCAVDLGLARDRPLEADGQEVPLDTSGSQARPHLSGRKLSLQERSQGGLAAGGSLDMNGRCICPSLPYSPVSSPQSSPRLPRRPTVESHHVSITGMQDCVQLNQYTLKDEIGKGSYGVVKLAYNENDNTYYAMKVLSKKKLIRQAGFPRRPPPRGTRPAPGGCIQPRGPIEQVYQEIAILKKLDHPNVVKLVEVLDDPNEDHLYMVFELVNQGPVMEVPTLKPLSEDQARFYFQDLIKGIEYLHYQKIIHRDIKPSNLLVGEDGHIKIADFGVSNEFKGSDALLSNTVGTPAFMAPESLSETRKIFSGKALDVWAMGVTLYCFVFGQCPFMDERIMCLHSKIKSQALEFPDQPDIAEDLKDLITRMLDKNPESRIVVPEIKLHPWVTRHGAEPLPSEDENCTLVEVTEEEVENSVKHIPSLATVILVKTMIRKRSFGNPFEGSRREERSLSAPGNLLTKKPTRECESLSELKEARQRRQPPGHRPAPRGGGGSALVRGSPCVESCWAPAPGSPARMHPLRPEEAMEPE
Chain of PKG1A (Q13976 whole entry): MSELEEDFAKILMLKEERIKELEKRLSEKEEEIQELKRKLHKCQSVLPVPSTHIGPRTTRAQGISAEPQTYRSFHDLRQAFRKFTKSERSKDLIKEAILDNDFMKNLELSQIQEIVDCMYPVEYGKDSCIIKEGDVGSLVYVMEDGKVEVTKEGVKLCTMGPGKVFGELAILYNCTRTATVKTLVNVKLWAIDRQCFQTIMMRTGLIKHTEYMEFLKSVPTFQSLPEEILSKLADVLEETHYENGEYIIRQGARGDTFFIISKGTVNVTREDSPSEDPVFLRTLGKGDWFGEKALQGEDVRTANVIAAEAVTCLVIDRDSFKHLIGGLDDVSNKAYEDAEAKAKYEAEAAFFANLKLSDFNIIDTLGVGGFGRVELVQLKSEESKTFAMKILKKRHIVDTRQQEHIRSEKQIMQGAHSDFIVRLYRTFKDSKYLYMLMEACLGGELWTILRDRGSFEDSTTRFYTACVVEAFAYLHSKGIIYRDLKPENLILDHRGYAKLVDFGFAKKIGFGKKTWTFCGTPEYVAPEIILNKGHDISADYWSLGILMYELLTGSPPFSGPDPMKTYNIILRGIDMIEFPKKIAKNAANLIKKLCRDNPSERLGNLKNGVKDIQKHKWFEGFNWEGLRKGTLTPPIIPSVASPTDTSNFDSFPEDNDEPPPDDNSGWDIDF
Chain of BRAF (P15056 whole entry): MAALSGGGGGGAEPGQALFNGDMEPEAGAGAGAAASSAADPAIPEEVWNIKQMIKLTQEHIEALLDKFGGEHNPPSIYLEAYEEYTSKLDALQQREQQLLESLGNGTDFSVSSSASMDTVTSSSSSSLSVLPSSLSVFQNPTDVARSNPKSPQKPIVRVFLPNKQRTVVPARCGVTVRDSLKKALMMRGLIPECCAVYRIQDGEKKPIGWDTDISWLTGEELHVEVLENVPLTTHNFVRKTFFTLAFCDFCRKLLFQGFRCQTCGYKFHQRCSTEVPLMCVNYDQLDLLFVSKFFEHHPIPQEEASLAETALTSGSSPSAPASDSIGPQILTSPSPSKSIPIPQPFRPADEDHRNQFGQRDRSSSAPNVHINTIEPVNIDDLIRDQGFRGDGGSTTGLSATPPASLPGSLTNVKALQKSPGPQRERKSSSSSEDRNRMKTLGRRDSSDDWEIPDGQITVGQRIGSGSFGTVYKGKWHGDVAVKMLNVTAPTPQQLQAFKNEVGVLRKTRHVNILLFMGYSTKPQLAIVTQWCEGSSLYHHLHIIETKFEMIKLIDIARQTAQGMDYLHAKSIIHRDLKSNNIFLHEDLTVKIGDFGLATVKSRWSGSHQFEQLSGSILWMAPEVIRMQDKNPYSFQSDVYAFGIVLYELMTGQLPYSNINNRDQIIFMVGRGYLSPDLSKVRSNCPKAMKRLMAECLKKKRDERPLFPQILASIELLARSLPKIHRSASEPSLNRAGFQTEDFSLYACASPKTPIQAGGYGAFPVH
Chain of SGK1 (O00141 whole entry): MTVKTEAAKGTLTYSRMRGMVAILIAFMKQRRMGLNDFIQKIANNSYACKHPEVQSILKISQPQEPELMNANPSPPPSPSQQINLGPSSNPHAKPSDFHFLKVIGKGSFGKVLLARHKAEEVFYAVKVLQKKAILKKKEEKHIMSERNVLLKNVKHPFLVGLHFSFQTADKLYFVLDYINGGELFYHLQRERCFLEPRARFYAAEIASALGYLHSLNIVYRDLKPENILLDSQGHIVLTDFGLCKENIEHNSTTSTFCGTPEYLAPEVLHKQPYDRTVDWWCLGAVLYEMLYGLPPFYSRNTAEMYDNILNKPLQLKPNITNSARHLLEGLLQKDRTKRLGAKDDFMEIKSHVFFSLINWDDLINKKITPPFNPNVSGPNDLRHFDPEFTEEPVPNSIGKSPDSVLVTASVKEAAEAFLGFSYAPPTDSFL
T1 sequence (Q04771 21-509): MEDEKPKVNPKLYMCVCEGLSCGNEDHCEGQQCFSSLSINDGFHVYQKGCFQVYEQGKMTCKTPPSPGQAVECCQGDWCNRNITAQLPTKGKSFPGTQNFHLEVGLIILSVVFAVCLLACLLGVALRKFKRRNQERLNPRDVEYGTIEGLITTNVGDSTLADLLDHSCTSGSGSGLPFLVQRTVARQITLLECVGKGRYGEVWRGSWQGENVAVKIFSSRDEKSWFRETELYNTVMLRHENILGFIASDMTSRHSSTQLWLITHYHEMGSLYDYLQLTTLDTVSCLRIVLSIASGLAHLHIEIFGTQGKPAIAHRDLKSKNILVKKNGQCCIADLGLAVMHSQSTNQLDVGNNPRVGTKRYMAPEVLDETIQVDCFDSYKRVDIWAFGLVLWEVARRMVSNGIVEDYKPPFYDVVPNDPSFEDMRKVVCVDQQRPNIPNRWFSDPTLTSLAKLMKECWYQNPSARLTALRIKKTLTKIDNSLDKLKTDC

Bim binding to Bcl-XL ([4]; 0.15 μM ABT-263, 3 hr, irrespective of JAK2 mutational status): displaced
Compound: CC1(C)CCC(c2ccc(Cl)cc2)=C(CN2CCN(c3ccc(C(=O)NS(=O)(=O)c4ccc(N[C@H](CCN5CCOCC5)CSc5ccccc5)c(S(=O)(=O)C(F)(F)F)c4)cc3)CC2)C1 [ABT-263]
Viability (% Inhibiton) ([1]; ABT-263 0.003 uM): 0% | Viability (% Inhibiton) ([1]; ABT-263 0.01 uM): 1% | Viability (% Inhibiton) ([1]; ABT-263 0.03 uM): 0% | Viability (% Inhibiton) ([1]; ABT-263 0.1 uM): 23% | Viability (% Inhibiton) ([1]; ABT-263 0.3 uM): 30% | Viability (% Inhibiton) ([1]; ABT-263 1 uM): 29% | Cell Viability (% Inhibiton) ([2]; Unt., ABT-263 0.003 uM): 0% | Cell Viability (% Inhibiton) ([2]; Unt., ABT-263 0.01 uM): 0% | Cell Viability (% Inhibiton) ([2]; Unt., ABT-263 0.03 uM): 3% | Cell Viability (% Inhibiton) ([2]; Unt., ABT-263 0.1 uM): 37% | Cell Viability (% Inhibiton) ([2]; Unt., ABT-263 0.3 uM): 94% | Cell Viability (% Inhibiton) ([2]; Unt., ABT-263 1 uM): 97% | Cell Viability (% Inhibiton) ([2]; siMcl1-1, ABT-263 0.003 uM): 0% | Cell Viability (% Inhibiton) ([2]; siMcl1-1, ABT-263 0.01 uM): 0% | Cell Viability (% Inhibiton) ([2]; siMcl1-1, ABT-263 0.03 uM): 0% | Cell Viability (% Inhibiton) ([2]; siMcl1-1, ABT-263 0.1 uM): 40% | Cell Viability (% Inhibiton) ([2]; siMcl1-1, ABT-263 0.3 uM): 97% | Cell Viability (% Inhibiton) ([2]; siMcl1-1, ABT-263 1 uM): 100% | Cell Viability (% Inhibiton) ([2]; siMcl1-2, ABT-263 0.003 uM): 0% | Cell Viability (% Inhibiton) ([2]; siMcl1-2, ABT-263 0.01 uM): 21% | Cell Viability (% Inhibiton) ([2]; siMcl1-2, ABT-263 0.03 uM): 38% | Cell Viability (% Inhibiton) ([2]; siMcl1-2, ABT-263 0.1 uM): 79% | Cell Viability (% Inhibiton) ([2]; siMcl1-2, ABT-263 0.3 uM): 100% | Cell Viability (% Inhibiton) ([2]; siMcl1-2, ABT-263 1 uM): 100% | Cell Viability (% Inhibiton) ([2]; siMcl1-3, ABT-263 0.003 uM): 0% | Cell Viability (% Inhibiton) ([2]; siMcl1-3, ABT-263 0.01 uM): 37% | Cell Viability (% Inhibiton) ([2]; siMcl1-3, ABT-263 0.03 uM): 65% | Cell Viability (% Inhibiton) ([2]; siMcl1-3, ABT-263 0.1 uM): 90% | Cell Viability (% Inhibiton) ([2]; siMcl1-3, ABT-263 0.3 uM): 100% | Cell Viability (% Inhibiton) ([2]; siMcl1-3, ABT-263 1 uM): 100% | Cell Viability (% Inhibiton) ([2]; siMcl1-4, ABT-263 0.003 uM): 0% | Cell Viability (% Inhibiton) ([2]; siMcl1-4, ABT-263 0.01 uM): 58% | Cell Viability (% Inhibiton) ([2]; siMcl1-4, ABT-263 0.03 uM): 85% | Cell Viability (% Inhibiton) ([2]; siMcl1-4, ABT-263 0.1 uM): 94% | Cell Viability (% Inhibiton) ([2]; siMcl1-4, ABT-263 0.3 uM): 100% | Cell Viability (% Inhibiton) ([2]; siMcl1-4, ABT-263 1 uM): 100% | Cell Viability (% Inhibiton) ([2]; siNT-1, ABT-263 0.003 uM): 0% | Cell Viability (% Inhibiton) ([2]; siNT-1, ABT-263 0.01 uM): 0% | Cell Viability (% Inhibiton) ([2]; siNT-1, ABT-263 0.03 uM): 7% | Cell Viability (% Inhibiton) ([2]; siNT-1, ABT-263 0.1 uM): 30% | Cell Viability (% Inhibiton) ([2]; siNT-1, ABT-263 0.3 uM): 93% | Cell Viability (% Inhibiton) ([2]; siNT-1, ABT-263 1 uM): 98% | Viability (% Inhibiton) ([3]; ABT-263 0.003 uM): 0% | Viability (% Inhibiton) ([3]; ABT-263 0.01 uM): 0% | Viability (% Inhibiton) ([3]; ABT-263 0.03 uM): 0% | Viability (% Inhibiton) ([3]; ABT-263 0.1 uM): 0% | Viability (% Inhibiton) ([3]; ABT-263 0.3 uM): 10% | Viability (% Inhibiton) ([3]; ABT-263 1 uM): 19% | caspase-3 activity, combination ([5]; JAKi-I 6 hr pretreatment followed by ABT-263, within four hours, cell lines harboring JAK2 V617F): synergistic induction | caspase-3 activity, single agent [5]: neither JAKi-I nor ABT-263 alone induced caspase-3 activity

Compound: CC(C)(C)c1nc2c3cc[nH]c(=O)c3c3cc(F)ccc3c2[nH]1 [JAKi-I, JAK inhibitor I]
pKi [6]: < 5.27 | pKi [7]: 6.20 | pKi [8]: < 5.51 | pKi [9]: < 5.36 | pKi [10]: < 5.49 | pKi [11]: < 5.18 | pKi [12]: 5.68 | pKi [13]: < 5.51 | pKi [14]: < 5.44 | pKi [15]: < 5.47 | pKi [16]: < 5.49 | pKi [17]: < 5.78 | abundance of total Bim protein ([4]; 1 μM JAKi-I, 6 hr, HEL and K562 lysates): not altered | Bim in Bcl-XL immunoprecipitates ([4]; 1 μM JAKi-I, 6 hr, in the presence of the JAK2 V617F mutation): enriched | caspase-3 activity, single agent [5]: neither JAKi-I nor ABT-263 alone induced caspase-3 activity | pKi [18]: 7.55 and 7.53
